Experimental data from patent publication US8278359B2, “Compositions containing amines and use thereof to treat acne or reduce the appearance of oil or pores on the skin” (Johnson & Johnson Consumer Companies, Inc., priority 2005, dated 2012).

Legend:
Format in all cases: cell-based
Human keratinocytes [1] = experiment: Visual contraction of keratinocytes by real time microscopy (cell area); conditions: 0.1%
Protocol: Human keratinocytes and Epilife culture media (Cascade Biologics, Portland, Oreg.) were cultured at 37° C. in a humidified atmospheres of 5% CO2/95% air. Glass Cover Slides (Applied Biophysics, Troy, N.Y.) were coated with 0.01 mg/ml Laminin V (Sigma Aldirch, St Louis, Mo.) in sterile Phosphate Buffered Saline (Gibco Life Sciences, San Diego, Calif.). Human keratinocytes were prepared at a density of 0.125×10^6 cells/mL in Epilife culture media. Human keratinocytes were plated at 3.75×10^4 cells/well on a 6 well plate containing Laminin coated coverslips and cultured at 37° C. in a humidified atmospheres of 5% […] for 48 hrs. Individual coverslips were transferred to a open bath imaging chamber (Warner Instruments, Hamden, Conn.) mounted on a Leica inverted microscope (Leitz DM1L) with an attached CCD camera. Cells were perfused with Hank's Buffered Salt Solution (HBSS; Gibco Life Sciences, San Diego, Calif.) at flow rate of 1 ml/min using a peristaltic pump (Cole Parmer, Vernon Hills, Ill.). […] Cell area was determined using Scion Image software (Version 4.0.2), and reductions in cell area were reported as the ratio of cell area after treatment to cell area prior to treatment

Human keratinocytes [2] = experiment: Electric Cell-substrate Impedance Sensing (ECIS) capacitance, keratinocyte contraction; conditions: capacitance integrated over 5 hrs, 40,000 Hz, pH 7.2-7.3
From the text: Electrical changes due to the presence of a cell layer can be used to calculate cell morphological parameters including the barrier function of the cell layer (the spacing between the ventral side of the cell and the substratum) and the cell membrane capacitance (Giaever and Keese, Proceedings of National Academy of Sciences 88, 7896, 1991).
Current flowing between a reference electrode, onto which cells or cell cultures may be attached, and a larger counter electrode using normal culture medium as the electrolyte can be used to detect changes in cell morphological parameters. In the absence of cells on the electrode, the current flows unrestrained from the surface of the electrodes. In the presence of cells attached and spread upon the electrode, the current must now flow in the spaces under and between the cells, as the cell membrane act as insulators.
The electrical changes of living, viable cells can be sampled rapidly, in real time, over an extended period of time, and the measurements are the measurement is non-invasive. An example of this technology is the Electric Cell-substrate Impedance Sensing System (ECIS) available from Applied Biophysics (Troy, N.Y.). […]
Human keratinocytes and Epilife culture media (Cascade Biologics, Portland, Oreg.) were cultured at 37° C. in a humidified atmospheres of 5% CO2/95% air. […] Capacitance changes (in nanofarads, nF) of keratinocytes were measured using a Electric Cell-substrate Impedance Sensing System (ECIS) Model 1600R (Applied Biophysics, Troy, N.Y.) using the method of Wegener and co-workers (Wegener J, Keese C R, Giaever I, Exp Cell Res. 259:158-166, 2000) at a frequency of 40,000 Hz. Capacitance readings are inversely related to the contact area of a cell onto the ECIS electrode array, the greater the cell area contacting the electrode the smaller the capacitance readings (Wegener J, Keese C R, Giaever I, Exp Cell Res. 259:158-166, 2000). Conversely as a cell contracts or shrinks, the contact area of the cell onto the ECIS electrode array decreases, resulting in an increase in the capacitance readings. […]

[3] = tested on: human facial skin biopsy punches rich in sebaceous glands; experiment: Sebum lipid accumulation in facial skin biopsy punches (C14-acetate, HPTLC); conditions: 25 um; two experiments, two donors
From the text: The ability of THPED to selectively affect the content of squalene present in human sebum without affecting other components of sebum was illustrated by its ability to selectively reduce the content of squalene present in human skin using the following assay.
The Methods used are as described previously by Pappas et al. (J Invest Dermatol. 2002 January; 118(1):164-171). In summary, samples of facial skin (otherwise to be discarded) were obtained from female patients 45-65 years of age. The subjects were healthy females without a history of retinoid or laser treatment or chemotherapy. The specimens were obtained from facial lift surgery within 5 hours from the end of the surgery. Two mm biopsy punches were taken from tissues rich in sebaceous glands and cultured in serum free medium. […]
The lipid components extracted from the explanted glands were analyzed by chromatographic separation on 10×20 cm Whatman HPTLC Silica G plates that had been previously charged with chloroform, heated in a vacuum oven at 105° C. for 30 min and cooled to room temperature in a dessicator. […]

SMILES: CC(O)CN(CCN(CC(C)O)CC(C)O)CC(C)O (centres unmarked) [THPED, N,N,N′,N′-Tetrakis(2-hydroxypropyl)ethylenediamine]
- Visual Contraction of Human Keratinocytes (reduction in cell area, Mean ± Std Dev) (Human keratinocytes [1]; 2 Min): 32.9% ±
- Visual Contraction of Human Keratinocytes (reduction in cell area, Mean ± Std Dev) (Human keratinocytes [1]; 10 Min): 37.9% ± 10.7%
- Visual Contraction of Human Keratinocytes (reduction in cell area, Mean ± Std Dev) (Human keratinocytes [1]; 20 Min): 47.3% ± 12.7%
- Electrical Capacitance Contraction of Human Keratinocytes (AUC, Mean ± Std Dev) (Human keratinocytes [2]; 0.01% V/V): 29.2 ± 3.2
- Electrical Capacitance Contraction of Human Keratinocytes (AUC, Mean ± Std Dev) (Human keratinocytes [2]; 0.05% V/V): 35.1 ± 5.3
- Electrical Capacitance Contraction of Human Keratinocytes (AUC, Mean ± Std Dev) (Human keratinocytes [2]; 0.1% V/V): 44.5 ± 9.1
- Inhibition of Squalene accumulation, (Percent of Vehicle Treated) [3]: 44.0%
- Inhibition of Triglyceride accumulation, (Percent of Vehicle Treated) [3]: 2.65%
